Target: T1, AhR (Homo sapiens, UniProt P35869)
T1 construct: endogenous in cells; host or cells: HaCaT keratinocytes
T1 sequence (P35869 11-848): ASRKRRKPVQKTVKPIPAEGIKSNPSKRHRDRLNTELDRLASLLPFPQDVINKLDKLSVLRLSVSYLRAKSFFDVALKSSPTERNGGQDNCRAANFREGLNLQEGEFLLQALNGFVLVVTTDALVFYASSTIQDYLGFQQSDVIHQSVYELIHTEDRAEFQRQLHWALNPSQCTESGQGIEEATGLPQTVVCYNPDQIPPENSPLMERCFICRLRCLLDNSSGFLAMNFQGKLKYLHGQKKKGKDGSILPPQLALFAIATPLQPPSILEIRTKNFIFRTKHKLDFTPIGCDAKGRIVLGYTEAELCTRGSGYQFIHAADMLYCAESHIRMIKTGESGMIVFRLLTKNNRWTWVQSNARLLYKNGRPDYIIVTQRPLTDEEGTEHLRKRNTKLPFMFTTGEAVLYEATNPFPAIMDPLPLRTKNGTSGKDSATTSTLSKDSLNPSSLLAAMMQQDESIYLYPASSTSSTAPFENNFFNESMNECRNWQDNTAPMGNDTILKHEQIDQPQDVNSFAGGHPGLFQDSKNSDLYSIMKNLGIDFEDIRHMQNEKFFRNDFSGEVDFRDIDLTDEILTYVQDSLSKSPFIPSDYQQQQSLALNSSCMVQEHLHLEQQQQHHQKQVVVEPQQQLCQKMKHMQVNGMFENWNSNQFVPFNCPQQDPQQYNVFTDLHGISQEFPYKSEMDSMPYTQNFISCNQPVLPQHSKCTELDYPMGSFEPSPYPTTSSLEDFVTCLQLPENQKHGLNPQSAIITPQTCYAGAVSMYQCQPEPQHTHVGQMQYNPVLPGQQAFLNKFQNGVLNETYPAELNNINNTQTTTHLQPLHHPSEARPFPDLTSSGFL
Assay: Quantification of AhR inhibition via determination of CYP1A1-mRNA in UVB-irradiated HaCaT keratinocytes
Assay type: cell-based
Conditions: HaCaT cells, 100 J/m^2 UVB, pretreated 1 h before irradiation, RNA after 4 h, relative to control (PBS, 0.1% DMSO, UVB-irradiated)
Description: HaCaT keratinocytes were cultivated in DMEM containing 10% of foetal calf serum. The cells were irradiated with UVB in PBS (phosphate buffered saline). For irradiation with UVB we used a TL20W/12RS lamp, which contains four parallel tubes (Philips, Eindhoven, The Netherlands) and emits the bulk of its energy in the UVB range (290-320 nm). The emission peak of the lamp is at 310 nm. Control cells were subjected to the same treatment but were not irradiated. To inhibit the AhR, the cells were treated with the test substances 1 h prior to irradiation.
HaCaT cells were irradiated with 100 J/m^2 of UVB. Some cells were pretreated with the test substances 1 h prior to irradiation. […] The PCR mix was composed of 1/10 by volume of QuantiTect® SYBR Green PCR Master Mix (Qiagen, Hilden, Germany), 0.5 μmol/l of the appropriate primer, 2 μl of cDNA and DEPC-treated (diethyl pyrocarbonate-treated) H2O in a final volume of 20 μl. […] The PCR conditions were as follows: 40 cycles of 15 sec at 94° C. for denaturing, 25 sec at 60° C. for primer attachment, 30 sec at 72° C. for extension and 2 sec at 72° C. for fluorescence measurement. […] The PCR products were quantified via a fragment-specific standard curve using LightCycler software 3. […]
Quantification of AhR Inhibition Via Determination of CYP1A1-mRNA

Row | Structure (SMILES) | inhibition at 350 µM (0.35 mM, read-out: CYP1A1 inhibition in presence of UVB light) [%] | CYP1A1 inhibition in presence of UVB light (0.0001 wt. %) [%]
1 | Oc1ccc2c(c1)OC[C@H]1c3cc4c(cc3O[C@@H]21)OCO4 [Maackiain] | 60 | 
2 | Oc1ccc2c(c1)OC1c3cc(O)c(O)cc3COC1C2O (centres unmarked) [Peltogynol] |  | 60
